# What was measured:
# PDGFRβ = PDGFRβ (Homo sapiens, UniProt P09619); experiment: Kinase inhibition functional assay; format: biochemical
# FLT3 = biological target: T1, FLT3 (Homo sapiens, UniProt P36888); experiment: Kinase inhibition functional assay; format: biochemical
# T1 sequence (P36888 27-993): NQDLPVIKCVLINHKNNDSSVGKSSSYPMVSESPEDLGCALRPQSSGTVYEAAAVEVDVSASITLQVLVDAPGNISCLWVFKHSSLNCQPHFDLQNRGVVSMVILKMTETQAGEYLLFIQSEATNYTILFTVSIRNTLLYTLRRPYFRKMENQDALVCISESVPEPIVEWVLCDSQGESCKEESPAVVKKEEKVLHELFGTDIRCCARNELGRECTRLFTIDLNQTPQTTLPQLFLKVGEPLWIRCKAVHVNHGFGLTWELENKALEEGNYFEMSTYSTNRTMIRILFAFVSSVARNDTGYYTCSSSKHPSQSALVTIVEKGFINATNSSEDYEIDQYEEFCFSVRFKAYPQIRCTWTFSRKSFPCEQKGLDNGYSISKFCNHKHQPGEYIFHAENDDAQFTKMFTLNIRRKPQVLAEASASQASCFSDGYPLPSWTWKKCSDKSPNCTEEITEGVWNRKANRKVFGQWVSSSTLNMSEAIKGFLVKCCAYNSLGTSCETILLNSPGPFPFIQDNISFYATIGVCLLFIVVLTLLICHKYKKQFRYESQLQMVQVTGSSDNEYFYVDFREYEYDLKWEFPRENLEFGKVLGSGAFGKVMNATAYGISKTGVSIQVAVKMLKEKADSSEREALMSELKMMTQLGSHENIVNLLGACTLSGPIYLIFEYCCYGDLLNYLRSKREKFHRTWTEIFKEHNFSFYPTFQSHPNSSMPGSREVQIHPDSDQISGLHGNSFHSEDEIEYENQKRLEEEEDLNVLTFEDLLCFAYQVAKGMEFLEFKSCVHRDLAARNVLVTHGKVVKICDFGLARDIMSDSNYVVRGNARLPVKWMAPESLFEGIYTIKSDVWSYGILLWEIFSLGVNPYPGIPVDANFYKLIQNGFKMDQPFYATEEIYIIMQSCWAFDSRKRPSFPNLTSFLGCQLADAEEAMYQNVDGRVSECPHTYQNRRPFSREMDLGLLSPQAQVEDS
# Sequence of PDGFRβ (P09619 33-1106): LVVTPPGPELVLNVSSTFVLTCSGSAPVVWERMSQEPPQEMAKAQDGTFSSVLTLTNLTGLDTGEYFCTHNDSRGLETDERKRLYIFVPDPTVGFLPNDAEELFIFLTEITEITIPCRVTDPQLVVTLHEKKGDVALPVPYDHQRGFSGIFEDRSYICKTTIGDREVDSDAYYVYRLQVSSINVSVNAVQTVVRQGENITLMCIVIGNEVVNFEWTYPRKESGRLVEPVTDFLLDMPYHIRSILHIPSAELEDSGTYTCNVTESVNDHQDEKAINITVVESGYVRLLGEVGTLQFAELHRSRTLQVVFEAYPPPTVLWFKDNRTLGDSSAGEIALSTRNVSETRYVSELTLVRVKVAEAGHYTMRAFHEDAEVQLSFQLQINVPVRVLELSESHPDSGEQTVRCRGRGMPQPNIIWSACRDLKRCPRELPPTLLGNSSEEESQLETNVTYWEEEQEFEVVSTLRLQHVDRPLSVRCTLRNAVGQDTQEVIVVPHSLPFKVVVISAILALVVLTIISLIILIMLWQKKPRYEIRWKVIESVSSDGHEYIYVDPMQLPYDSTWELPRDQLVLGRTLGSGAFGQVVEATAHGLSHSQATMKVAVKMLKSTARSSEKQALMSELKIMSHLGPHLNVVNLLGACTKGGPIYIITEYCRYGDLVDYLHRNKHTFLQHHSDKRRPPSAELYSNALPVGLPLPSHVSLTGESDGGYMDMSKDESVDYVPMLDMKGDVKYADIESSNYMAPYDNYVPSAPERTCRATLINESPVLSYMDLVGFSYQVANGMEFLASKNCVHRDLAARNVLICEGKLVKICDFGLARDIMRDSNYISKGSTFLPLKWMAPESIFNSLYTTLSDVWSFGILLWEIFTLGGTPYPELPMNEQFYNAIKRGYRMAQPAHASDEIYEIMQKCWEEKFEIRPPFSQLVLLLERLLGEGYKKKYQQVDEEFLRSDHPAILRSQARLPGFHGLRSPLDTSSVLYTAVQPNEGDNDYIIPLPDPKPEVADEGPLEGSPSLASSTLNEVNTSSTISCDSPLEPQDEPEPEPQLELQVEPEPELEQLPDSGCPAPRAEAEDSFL
smiles,measurement,setting,value
Cc1cn(-c2cc(F)cc(NC(=O)c3ccc(C)c(Nc4nccc(-c5cccnc5)n4)c3)c2)cn1 [Compound 2b],IC50,PDGFRβ,> 50000 nM
Cc1cc(NC(=O)c2ccc(C)c(Nc3nccc(-c4cccnc4)n3)c2)cc(-n2cnc(C)c2)c1 [Compound 2c],IC50,FLT3,118 nM

# From PMC3547291 (Bioorganic & medicinal chemistry letters, 2012)
